Experimental data from ChEMBL document CHEMBL1140855, “Design, synthesis, and binding affinities of potential positron emission tomography (PET) ligands with optimal lipophilicity for brain imaging of the dopamine D3 receptor. Part II” (Bioorg Med Chem, 2009).

Legend:
[1] = Lipophilicity, log P of the compound; format: physicochemical; details: octanol/water
[2] = Lipophilicity, log P at pH 7.4; format: physicochemical; details: buffer
[3] = Dissociation constant, pKa of the compound; format: physicochemical
D(3) dopamine receptor = D(3) dopamine receptor (Homo sapiens, UniProt P35462)
Sequence of D(3) dopamine receptor (P35462 whole entry): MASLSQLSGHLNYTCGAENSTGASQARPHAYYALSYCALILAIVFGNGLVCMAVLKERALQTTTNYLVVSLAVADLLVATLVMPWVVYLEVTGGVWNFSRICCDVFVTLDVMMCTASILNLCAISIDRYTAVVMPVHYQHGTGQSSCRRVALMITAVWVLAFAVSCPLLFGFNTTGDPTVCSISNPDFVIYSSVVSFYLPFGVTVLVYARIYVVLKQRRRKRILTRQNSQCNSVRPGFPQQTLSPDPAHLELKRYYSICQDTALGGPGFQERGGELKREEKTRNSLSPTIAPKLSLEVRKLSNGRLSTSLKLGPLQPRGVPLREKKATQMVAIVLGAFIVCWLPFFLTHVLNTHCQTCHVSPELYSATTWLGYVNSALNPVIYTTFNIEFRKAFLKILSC
Description: Displacement of [3H]spiroperidol from human cloned dopamine D3 receptor by liquid scintillation counting

D(2) dopamine receptor = D(2) dopamine receptor (Homo sapiens, UniProt P14416)
Sequence of D(2) dopamine receptor (P14416 whole entry): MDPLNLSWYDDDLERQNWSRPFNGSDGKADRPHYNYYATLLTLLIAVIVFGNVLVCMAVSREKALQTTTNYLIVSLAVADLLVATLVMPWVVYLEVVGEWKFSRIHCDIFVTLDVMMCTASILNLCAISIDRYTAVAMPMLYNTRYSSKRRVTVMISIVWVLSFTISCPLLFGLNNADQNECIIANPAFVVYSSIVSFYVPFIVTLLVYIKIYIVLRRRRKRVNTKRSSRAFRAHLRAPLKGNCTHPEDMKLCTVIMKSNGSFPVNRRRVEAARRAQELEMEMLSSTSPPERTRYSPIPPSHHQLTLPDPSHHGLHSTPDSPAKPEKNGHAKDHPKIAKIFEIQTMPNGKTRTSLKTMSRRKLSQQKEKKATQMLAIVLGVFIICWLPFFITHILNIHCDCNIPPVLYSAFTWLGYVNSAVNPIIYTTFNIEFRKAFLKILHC
Description: Displacement of [3H]spiroperidol from human cloned dopamine D2L receptor by liquid scintillation counting

logP [1]	logD [2]	pKa [3]	Ki (D(3) dopamine receptor) [nM]	Ki (D(2) dopamine receptor) [nM]	Structure (SMILES)
2.9	2.51	7.56	47.2	196	O=C(NCCCCN1CCN(c2cccc(OCCF)c2)CC1)c1ccc(-n2ccnc2)cc1
3.1	2.39	8.05	4.23	51.7	COc1ccccc1N1CCN(CCCCNC(=O)c2ccc(-n3ccnc3)cc2)CC1
2.79	2.26	7.78	4.7	31	COc1ccccc1N1CCN(CCCCNC(=O)c2ccc3nonc3c2)CC1
2.79	2.26	7.78	22.1	17.8	O=C(NCCCCN1CCN(c2ccccc2OCCF)CC1)c1ccc2nonc2c1
2.8	2.48	7.44	170	> 100	COc1cccc(N2CCN(CCCCNC(=O)c3ccc4nonc4c3)CC2)c1
3.16	2.8	7.52	29.2	133	COc1cc(F)cc(N2CCN(CCCCNC(=O)c3ccc(-n4ccnc4)cc3)CC2)c1
3.34	3.12	7.34	658	1340	COc1cc(F)cc(N2CCN(CCCCNC(=O)c3ccc4nonc4c3)CC2)c1
2.66	2.34	7.43	> 1000	89.4	COc1ccccc1N1CCN(CCCNC(=O)c2ccc3nonc3c2)CC1
2.77	2.41	7.51	6220	> 1000	COc1ccc(N2CCN(CCCCNC(=O)c3ccc4nonc4c3)CC2)cc1
2.93	2.51	7.59	19.9	243	COc1cccc(N2CCN(CCCCNC(=O)c3ccc(-n4ccnc4)cc3)CC2)c1
2.8	2.37	7.64	211	> 1000	COc1ccc(N2CCN(CCCCNC(=O)c3ccc(-n4ccnc4)cc3)CC2)cc1
2.87	2.53	7.47	226	> 1000	O=C(NCCCCN1CCN(c2cccc(OCCF)c2)CC1)c1ccc2nonc2c1
2.59	2.22	7.53	95.3	121	COc1ccccc1N1CCN(CCCNC(=O)c2ccc(-n3ccnc3)cc2)CC1
			1.3		CCCN(CCC)C1CCc2cc(CS(=O)(=O)c3ccc(OC)cc3)ccc2C1 (configuration not stated)

Structure (SMILES)	logP [1]	logD [2]	pKa [3]	Ki (D(3) dopamine receptor) [nM]	Ki (D(2) dopamine receptor) [nM]
COc1ccccc1N1CCN(CCCCOc2ccc(C3CN4C=CSC4=N3)cc2)CC1 (configuration not stated)				0.12	
O=C(NCCCCN1CCN(c2ccccc2OCCF)CC1)c1ccc(-n2ccnc2)cc1	2.9	2.4	7.74	2.95	5.92
